Tests used:
ducksalad = experiment: Test B flooded paddy test; format: in vivo, Heteranthera limosa; settings: 1000 g ai/ha, visual rating, scale 0 to 100 (0 no effect, 100 complete control), 13 to 15 days
In short: (§1)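 Formulated test chemicals went onto postemergence plants measuring 2 to 18 cm, at one to four leaves. For the paddy assay, species had reached two leaves. Scoring took place 13–15 days later by eye, relative to untreated plants, using 0 for no effect up to 100 for full control.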

cocklebur = experiment: Test B pre-/postemergence herbicide test; format: in vivo, Xanthium strumarium; settings: for Cocklebur plant response rating: postemergence, visual rating, scale 0 (no effect) to 100 (complete control)
In short: (§2)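 Plants compared with untreated controls 13–15 days post-treatment and given a visual 0–100 injury score. Applications: preemergence to seeds; postemergence at 1- to 4-leaf (2–18 cm); paddy species flooded, 2-leaf stage. Vehicle non-phytotoxic, surfactant included.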

pigweed = experiment: Test B pre-/postemergence herbicide test; format: in vivo, Amaranthus retroflexus; settings: for Pigweed plant response rating: postemergence, visual rating, scale 0 (no effect) to 100 (complete control)
In short: (§3)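 Seeds were planted and treated preemergence with compounds formulated in a non-phytotoxic solvent mixture containing surfactant, while plants at the 1- to 4-leaf stage (2 to 18 cm) received postemergence sprays. Flooded paddy plants were grown to the 2-leaf stage. After 13 to 15 days in a greenhouse, injury was visually rated 0–100 against untreated controls.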

rice [1] = experiment: Test B flooded paddy test; format: in vivo, Oryza sativa; settings: 1000 g ai/ha, visual rating, scale 0 to 100 (0 no effect, 100 complete control), 13 to 15 days
In short: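 Visual ratings, 0 (no effect) to 100 (complete control), made versus controls after 13–15 d greenhouse. Paddy plants treated at 2-leaf stage; postemergence plants at 1- to 4-leaf stage, 2–18 cm tall.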

large crabgrass = experiment: Test B pre-/postemergence herbicide test; format: in vivo, Digitaria sanguinalis; settings: for Crabgrass, Large plant response rating: postemergence, visual rating, scale 0 (no effect) to 100 (complete control)
In short: as §3

barnyardgrass [2] = experiment: Test B flooded paddy test; format: in vivo, Echinochloa crus-galli; settings: 1000 g ai/ha, visual rating, scale 0 to 100 (0 no effect, 100 complete control), 13 to 15 days
In short: as §1

rice [3] = experiment: Test B pre-/postemergence herbicide test; format: in vivo, Oryza sativa; settings: preemergence
In short: as §3

wild oat = experiment: Test B postemergence herbicide test; format: in vivo, Avena fatua; settings: postemergence, visual rating, scale 0 (no effect) to 100 (complete control)
In short: (§4)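 Plants grow to 1- to 4-leaf stage (2–18 cm) for postemergence spraying, or to 2-leaf stage for the paddy test. Formulated compound is applied. Greenhouse holding lasts 13–15 days. Response is scored visually relative to controls, 0 no effect to 100 complete control; a dash means no result.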

giant foxtail = experiment: Test B pre-/postemergence herbicide test; format: in vivo, Setaria faberi; settings: for Foxtail, Giant plant response rating: postemergence, visual rating, scale 0 (no effect) to 100 (complete control)
In short: as §3

corn = experiment: Test B pre-/postemergence herbicide test; format: in vivo, Zea mays; settings: for Corn plant response rating: postemergence, visual rating, scale 0 (no effect) to 100 (complete control)
In short: as §3

barnyardgrass [4] = experiment: Test B pre-/postemergence herbicide test; format: in vivo, Echinochloa crus-galli; settings: for Barnyardgrass plant response rating: postemergence, visual rating, scale 0 (no effect) to 100 (complete control)
In short: as §2

blackgrass = experiment: Test B postemergence herbicide test; format: in vivo, Alopecurus myosuroides; settings: postemergence, visual rating, scale 0 (no effect) to 100 (complete control)
In short: as §1

[5] = tested on: small flower umbrella sedge; experiment: Test B flooded paddy test; format: in vivo, Cyperus difformis; settings: 1000 g ai/ha, visual rating, scale 0 to 100 (0 no effect, 100 complete control), 13 to 15 days
In short: as §1

Surinam grass = experiment: Test B pre-/postemergence herbicide test; format: in vivo, Urochloa decumbens; settings: for Surinam Grass plant response rating: postemergence, visual rating, scale 0 (no effect) to 100 (complete control)
In short: as §3

wheat = experiment: Test B postemergence herbicide test; format: in vivo, Triticum aestivum; design: key to Wheat plant response rating: 0 = no effect, 100 = complete control; settings: postemergence, visual rating, scale 0 (no effect) to 100 (complete control)
In short: as §4

morningglory = experiment: Test B pre-/postemergence herbicide test; format: in vivo, Ipomoea coccinea; settings: for Morningglory plant response rating: postemergence, visual rating, scale 0 (no effect) to 100 (complete control)
In short: as §2

velvetleaf = experiment: Test B pre-/postemergence herbicide test; format: in vivo, Abutilon theophrasti; settings: for Velvetleaf plant response rating: postemergence, visual rating, scale 0 (no effect) to 100 (complete control)
In short: as §3

lambsquarters = experiment: Test B pre-/postemergence herbicide test; format: in vivo, Chenopodium album; settings: for Lambsquarters plant response rating: postemergence, visual rating, scale 0 (no effect) to 100 (complete control)
In short: as §3

[6] = 125 g ai/ha, 0 = no effect, 100 = complete control, preemergence
[7] = 500 g ai/ha, visual rating 0-100, 0 no effect, 100 complete control, preemergence

For CCN(CC)C(=O)c1cccc(NC(=O)c2nn(C(C)(C)C)cc2C(F)(F)F)c1 [Compound 169], the “Ducksalad plant response rating” value (ducksalad) was 0, the “Cocklebur plant response rating (0 to 100 scale)” value (cocklebur; [6]) was 0 and the “Plant response rating, Cocklebur” value (cocklebur; [7]) was 0. The “Cocklebur plant response rating” value (cocklebur; 125 g ai/ha) was 0, the “Cocklebur plant response rating” value (cocklebur; 500 g ai/ha) was 0 and the “Pigweed plant response rating (0 to 100 scale)” value (pigweed; [6]) was 0. The “Plant response rating, Pigweed” value (pigweed; [7]) was 100, the “Pigweed plant response rating” value (pigweed; 125 g ai/ha) was 20 and the “Pigweed plant response rating” value (pigweed; 500 g ai/ha) was 40. The “Rice plant response rating” value (rice [1]) was 0, the “Crabgrass, Large plant response rating (0 to 100 scale)” value (large crabgrass; [6]) was 0 and the “Plant response rating, Crabgrass, Large” value (large crabgrass; [7]) was 40. The “Crabgrass, Large plant response rating” value (large crabgrass; 125 g ai/ha) was 10, the “Crabgrass, Large plant response rating” value (large crabgrass; 500 g ai/ha) was 10 and the “Barnyardgrass plant response rating” value (barnyardgrass [2]) was 0. The “Rice plant response rating (0 to 100 scale)” value (rice [3]; 125 g ai/ha, 0 = no effect, 100 = complete control) was 0, the “Plant response rating, Rice” value (rice [3]; 500 g ai/ha, visual rating 0-100, 0 no effect, 100 complete control) was 0 and the “Oat, Wild plant response rating” value (wild oat; 125 g ai/ha) was 10. The “Oat, Wild plant response rating” value (wild oat; 500 g ai/ha) was 10, the “Foxtail, Giant plant response rating (0 to 100 scale)” value (giant foxtail; [6]) was 0 and the “Plant response rating, Foxtail, Giant” value (giant foxtail; [7]) was 10. For the same compound, the “Foxtail, Giant plant response rating” value (giant foxtail; 125 g ai/ha) was 0, the “Foxtail, Giant plant response rating” value (giant foxtail; 500 g ai/ha) was 0 and the “Corn plant response rating (0 to 100 scale)” value (corn; [6]) was 0. For the same compound, the “Plant response rating, Corn” value (corn; [7]) was 0, the “Corn plant response rating” value (corn; 125 g ai/ha) was 10 and the “Corn plant response rating” value (corn; 500 g ai/ha) was 10. The “Barnyardgrass plant response rating (0 to 100 scale)” value (barnyardgrass [4]; [6]) was 0, the “Plant response rating, Barnyardgrass” value (barnyardgrass [4]; [7]) was 10 and the “Barnyardgrass plant response rating” value (barnyardgrass [4]; 125 g ai/ha) was 0. For the same compound, the “Barnyardgrass plant response rating” value (barnyardgrass [4]; 500 g ai/ha) was 10, the “Blackgrass plant response rating” value (blackgrass; 125 g ai/ha) was 0 and the “Blackgrass plant response rating” value (blackgrass; 500 g ai/ha) was 10. For the same compound, the “Sedge, Umbrella plant response rating” value [5] was 0, the “Surinam Grass plant response rating (0 to 100 scale)” value (Surinam grass; [6]) was 0 and the “Plant response rating, Surinam Grass” value (Surinam grass; [7]) was 10. The “Surinam Grass plant response rating” value (Surinam grass; 125 g ai/ha) was 0, the “Surinam Grass plant response rating” value (Surinam grass; 500 g ai/ha) was 10 and the “Wheat plant response rating” value (wheat; 125 g ai/ha) was 0. The “Wheat plant response rating” value (wheat; 500 g ai/ha) was 0, the “Morningglory plant response rating (0 to 100 scale)” value (morningglory; [6]) was 0 and the “Plant response rating, Morningglory” value (morningglory; [7]) was 10. For the same compound, the “Morningglory plant response rating” value (morningglory; 125 g ai/ha) was 20, the “Morningglory plant response rating” value (morningglory; 500 g ai/ha) was 70 and the “Velvetleaf plant response rating (0 to 100 scale)” value (velvetleaf; [6]) was 0. The “Plant response rating, Velvetleaf” value (velvetleaf; [7]) was 0, the “Velvetleaf plant response rating” value (velvetleaf; 125 g ai/ha) was 0 and the “Velvetleaf plant response rating” value (velvetleaf; 500 g ai/ha) was 0. The “Lambsquarters plant response rating (0 to 100 scale)” value (lambsquarters; [6]) was 0, the “Plant response rating, Lambsquarters” value (lambsquarters; [7]) was 60 and the “Lambsquarters plant response rating” value (lambsquarters; 125 g ai/ha) was 40. The “Lambsquarters plant response rating” value (lambsquarters; 500 g ai/ha) was 60.

Reference: patent US20060069132A1, “Azolecarboxamide herbicides” (priority 2004, published 2006)
